Data reported in patent publication US5977063A, “Alkylated hexapeptides” (Eli Lilly and Company, priority 1998, dated 1999).

Assays:
Assay type in all cases: cell-based
[1] = test system: Staphylococcus haemolyticus 415; assay: MIC, standard broth micro-dilution assay, SH 415; set-up: unit not given here
Experimental: (§1) The antibacterial efficacy of the present compounds is illustrated by Table II. The minimal inhibitory concentrations (MICs) were determined using a standard broth micro-dilution assay.

[2] = test system: Staphylococcus aureus 447; assay: MIC, standard broth micro-dilution assay, SA 447; set-up: unit not given here
Experimental: as §1

[3] = test system: Staphylococcus aureus 446; assay: MIC, standard broth micro-dilution assay, SA 446; set-up: unit not given here
Experimental: as §1

[4] = test system: Enterococcus faecium and faecalis (RESISTANT); conditions: geometric mean of 4-6 isolates
Experimental: as §1

[5] = test system: Staphylococcus aureus 489; assay: MIC, standard broth micro-dilution assay, SA 489; set-up: unit not given here
Experimental: as §1

[6] = test system: Staphylococcus haemolyticus 105; assay: MIC, standard broth micro-dilution assay, SH 105; set-up: unit not given here
Experimental: as §1

[7] = test system: Streptococcus pyogenes C203; assay: MIC, standard broth micro-dilution assay, SPY C203; set-up: unit not given here
Experimental: as §1

[8] = test system: Streptococcus pneumoniae P1; assay: MIC, standard broth micro-dilution assay, SPN P1; set-up: unit not given here
Experimental: as §1

[9] = test system: Staphylococcus epidermidis 270; assay: MIC, standard broth micro-dilution assay, SE 270; set-up: unit not given here
Experimental: as §1

[10] = test system: Enterococcus faecium and faecalis (SENSITIVE); assay: MIC, standard broth micro-dilution assay, SENSITIVE enterococci; set-up: unit not given here; conditions: geometric mean of 4-6 isolates
Experimental: as §1

C[C@@H]1O[C@@H](O[C@@H]2c3ccc(c(Cl)c3)Oc3cc4cc(c3O[C@@H]3O[C@H](CO)[C@@H](O)[C@H](O)[C@H]3O[C@H]3C[C@](C)(NCc5ccc(-c6ccc(Cl)cc6)cc5)[C@@H](O)[C@H](C)O3)Oc3ccc(cc3Cl)[C@@H](O)[C@@H](NCCCCCCc3ccccc3)C(=O)N[C@@H](CC(N)=O)C(=O)N[C@H]4C(=O)N[C@H]3C(=O)N[C@@H]2C(=O)N[C@H](C(=O)O)c2cc(O)cc(O)c2-c2cc3ccc2O)C[C@](C)(N)[C@H]1O [Example 28, N^1 -(6-PHENYL-n-HEXYL)-N^DISACC -(p-(p-CHLOROPHENYL)BENZYL)DESLEUCYL-A82846B]
Minimal Inhibitory Concentration (MIC) SH 415 [1]: 2
Minimal Inhibitory Concentration (MIC) SA 447 [2]: 8
Minimal Inhibitory Concentration (MIC) SA 446 [3]: 8
Minimal Inhibitory Concentration (MIC) RESISTANT [4]: 6.7
Minimal Inhibitory Concentration (MIC) SA 489 [5]: 8
Minimal Inhibitory Concentration (MIC) SH 105 [6]: 4
Minimal Inhibitory Concentration (MIC) SPY C203 [7]: 4
Minimal Inhibitory Concentration (MIC) SPN P1 [8]: 16
Minimal Inhibitory Concentration (MIC) SE 270 [9]: 4
Minimal Inhibitory Concentration (MIC) SENSITIVE [10]: 7

C[C@@H]1O[C@@H](O[C@@H]2c3ccc(c(Cl)c3)Oc3cc4cc(c3O[C@@H]3O[C@H](CO)[C@@H](O)[C@H](O)[C@H]3O[C@H]3C[C@](C)(NCc5ccc(-c6ccccc6)cc5)[C@@H](O)[C@H](C)O3)Oc3ccc(cc3Cl)[C@@H](O)[C@@H](NCc3ccc(-c5cc(C(F)(F)F)cc(C(F)(F)F)c5)cc3)C(=O)N[C@@H](CC(N)=O)C(=O)N[C@H]4C(=O)N[C@H]3C(=O)N[C@@H]2C(=O)N[C@H](C(=O)O)c2cc(O)cc(O)c2-c2cc3ccc2O)C[C@](C)(N)[C@H]1O [Example 26, N^1 -(p-(3,5-BIS-(TRIFLUOROMETHYL)-PHENYL)BENZYL)-N^DISACC -(p-PHENYLBENZYL)-DESLEUCYL-A82846B]
Minimal Inhibitory Concentration (MIC) SH 415 [1]: 4
Minimal Inhibitory Concentration (MIC) SA 447 [2]: 4
Minimal Inhibitory Concentration (MIC) SA 446 [3]: 8
Minimal Inhibitory Concentration (MIC) RESISTANT [4]: 5.7
Minimal Inhibitory Concentration (MIC) SA 489 [5]: 4
Minimal Inhibitory Concentration (MIC) SH 105 [6]: 2
Minimal Inhibitory Concentration (MIC) SPY C203 [7]: 0.25
Minimal Inhibitory Concentration (MIC) SPN P1 [8]: ≤ .06
Minimal Inhibitory Concentration (MIC) SE 270 [9]: 4
Minimal Inhibitory Concentration (MIC) SENSITIVE [10]: 6.1

CSc1ccc(CN[C@H]2C(=O)N[C@@H](CC(N)=O)C(=O)N[C@H]3C(=O)N[C@H]4C(=O)N[C@H](C(=O)N[C@H](C(=O)O)c5cc(O)cc(O)c5-c5cc4ccc5O)[C@H](O[C@H]4C[C@](C)(N)[C@@H](O)[C@H](C)O4)c4ccc(c(Cl)c4)Oc4cc3cc(c4O[C@@H]3O[C@H](CO)[C@@H](O)[C@H](O)[C@H]3O[C@H]3C[C@](C)(N)[C@@H](O)[C@H](C)O3)Oc3ccc(cc3Cl)[C@H]2O)cc1 [Example 24, N^1 -(p-(METHYLTHIO)-BENZYL)DESLEUCYL-A82846B]
Minimal Inhibitory Concentration (MIC) SH 415 [1]: 64
Minimal Inhibitory Concentration (MIC) SA 447 [2]: 32
Minimal Inhibitory Concentration (MIC) SA 446 [3]: 32
Minimal Inhibitory Concentration (MIC) RESISTANT [4]: > 128
Minimal Inhibitory Concentration (MIC) SA 489 [5]: 16
Minimal Inhibitory Concentration (MIC) SH 105 [6]: 32
Minimal Inhibitory Concentration (MIC) SPY C203 [7]: 8
Minimal Inhibitory Concentration (MIC) SPN P1 [8]: 8
Minimal Inhibitory Concentration (MIC) SE 270 [9]: 32
Minimal Inhibitory Concentration (MIC) SENSITIVE [10]: > 128

C[C@@H]1O[C@@H](O[C@H]2[C@H](Oc3c4cc5cc3Oc3ccc(cc3Cl)[C@@H](O[C@H]3C[C@](C)(N)[C@@H](O)[C@H](C)O3)[C@@H]3NC(=O)[C@H](NC(=O)[C@@H]5NC(=O)[C@H](CC(N)=O)NC(=O)[C@H](NCc5ccc(-c6ccccc6)cc5)[C@H](O)c5ccc(c(Cl)c5)O4)c4ccc(O)c(c4)-c4c(O)cc(O)cc4[C@@H](C(=O)O)NC3=O)O[C@H](CO)[C@@H](O)[C@@H]2O)C[C@](C)(N)[C@H]1O [Example 3, N^1- (p-PHENYLBENZYL)-DESLEUCYL-A82846B]
Minimal Inhibitory Concentration (MIC) SH 415 [1]: 16
Minimal Inhibitory Concentration (MIC) SA 447 [2]: 8
Minimal Inhibitory Concentration (MIC) SA 446 [3]: 8
Minimal Inhibitory Concentration (MIC) RESISTANT [4]: > 128
Minimal Inhibitory Concentration (MIC) SA 489 [5]: 8
Minimal Inhibitory Concentration (MIC) SH 105 [6]: 8
Minimal Inhibitory Concentration (MIC) SPY C203 [7]: ≤ .06
Minimal Inhibitory Concentration (MIC) SPN P1 [8]: ≤ .06
Minimal Inhibitory Concentration (MIC) SE 270 [9]: 8
Minimal Inhibitory Concentration (MIC) SENSITIVE [10]: 21

C[C@@H]1O[C@@H](O[C@H]2[C@H](Oc3c4cc5cc3Oc3ccc(cc3Cl)[C@@H](O[C@H]3C[C@](C)(N)[C@@H](O)[C@H](C)O3)[C@@H]3NC(=O)[C@H](NC(=O)[C@@H]5NC(=O)[C@H](CC(N)=O)NC(=O)[C@H](NCc5ccc(OCCCc6ccccc6)cc5)[C@H](O)c5ccc(c(Cl)c5)O4)c4ccc(O)c(c4)-c4c(O)cc(O)cc4[C@@H](C(=O)O)NC3=O)O[C@H](CO)[C@@H](O)[C@@H]2O)C[C@](C)(N)[C@H]1O [Example 21, N^1 -(p-(3-PHENYL-n-PROPOXY)BENZYL)DESLEUCYL-A82846B]
Minimal Inhibitory Concentration (MIC) SH 415 [1]: 8
Minimal Inhibitory Concentration (MIC) SA 447 [2]: 4
Minimal Inhibitory Concentration (MIC) SA 446 [3]: 4
Minimal Inhibitory Concentration (MIC) RESISTANT [4]: > 128
Minimal Inhibitory Concentration (MIC) SA 489 [5]: 4
Minimal Inhibitory Concentration (MIC) SH 105 [6]: 4
Minimal Inhibitory Concentration (MIC) SPY C203 [7]: ≤ .06
Minimal Inhibitory Concentration (MIC) SPN P1 [8]: ≤ .06
Minimal Inhibitory Concentration (MIC) SE 270 [9]: 4
Minimal Inhibitory Concentration (MIC) SENSITIVE [10]: 32

C[C@@H]1O[C@@H](O[C@@H]2c3ccc(c(Cl)c3)Oc3cc4cc(c3O[C@@H]3O[C@H](CO)[C@@H](O)[C@H](O)[C@H]3O[C@H]3C[C@](C)(NCc5ccc(-c6ccc(Cl)cc6)cc5)[C@@H](O)[C@H](C)O3)Oc3ccc(cc3Cl)[C@@H](O)[C@@H](NCc3ccc(-c5cc(C(F)(F)F)cc(C(F)(F)F)c5)cc3)C(=O)N[C@@H](CC(N)=O)C(=O)N[C@H]4C(=O)N[C@H]3C(=O)N[C@@H]2C(=O)N[C@H](C(=O)O)c2cc(O)cc(O)c2-c2cc3ccc2O)C[C@](C)(N)[C@H]1O [Example 27, N^1 -(p-(3,5-BIS-(TRIFLUOROMETHYL)-PHENYL)BENZYL)-N^DISACC -(p-(p-CHLOROPHENYL)BENZYL-DESLEUCYL-A82846B]
Minimal Inhibitory Concentration (MIC) SH 415 [1]: 32
Minimal Inhibitory Concentration (MIC) SA 447 [2]: 32
Minimal Inhibitory Concentration (MIC) SA 446 [3]: 64
Minimal Inhibitory Concentration (MIC) RESISTANT [4]: 9.5
Minimal Inhibitory Concentration (MIC) SA 489 [5]: 32
Minimal Inhibitory Concentration (MIC) SH 105 [6]: 8
Minimal Inhibitory Concentration (MIC) SPY C203 [7]: 64
Minimal Inhibitory Concentration (MIC) SPN P1 [8]: 32
Minimal Inhibitory Concentration (MIC) SE 270 [9]: 8
Minimal Inhibitory Concentration (MIC) SENSITIVE [10]: 6.1
